Data: patent publication US20220331458A1, “AGENTS FOR CLEAVING LABELS FROM BIOMOLECULES IN VIVO” (TAGWORKS PHARMACEUTICALS B.V., priority 2019, published 2022)
Marks after values point to notes of the source that are not given here.

Key:
[1] = test system: radiolabeled mAb-conjugates; assay: In vitro Label release from radiolabeled mAb-TCO-chelate conjugates incubated with Cleaving Agents (SEC); conditions: 37°C, 15-24 h; for release (%) without Cleaving Agent: no Cleaving Agent
Procedure: Briefly, mAb solutions in PBS (4 mg/mL final concentration) were added with 15-20 eq of the NHS-derivative (dissolved at 10 mg/mL in DMSO) and the pH was adjusted to 9 with 1M sodium carbonate. The reaction mixtures were incubated at rt in the dark for 2 h then the products were purified by dialysis (20 kDa MW cut-off membranes) in chelex-treated 0.25M NH4OAc pH 5.5.
After 15-24 h incubation the mixtures were analyzed by SEC and the amount of released Label was quantified from the radioactivity elution profile.

[2] = ^111In biodistribution in normal mice after ^111In-trastuzumab-1.8 followed by 2.10 or vehicle; type: in vivo
[3] = Radioactivity in blood and tumors stated jointly for LS174T and BT-474 tumor-bearing mice (^111In-trastuzumab-1.8, 2.10); type: in vivo; conditions: ^111In-trastuzumab-1.8 followed by 2.10 48 h post-injection
Procedure: Female Balb/C mice were injected ca 1 million LS174T colon carcinoma cells or 10 million BT-474 breast cancer cells s.c. in the flank. […] Control groups were euthanized 72 h post-mAb injection.

[4] = Label release from TCO derivative 1.8 on trastuzumab, ^111In, 50% mouse plasma in PBS
[5] = Label release from TCO derivative 1.8 on trastuzumab, ^111In, PBS
[6] = Label release from TCO derivative 1.14 on CC49, ^89Zr, PBS
[7] = Label release from TCO derivative 1.15 on CC49, ^89Zr, PBS
[8] = Label release from TCO derivative 1.17 on CC49, ^89Zr, PBS
[9] = Label release from TCO derivative 1.17 on trastuzumab, ^89Zr, PBS
[10] = Label release from TCO derivative 1.4 on trastuzumab, ^111In, PBS
[11] = Label release from TCO derivative 1.2 on trastuzumab, ^111In, 50% mouse plasma in PBS
[12] = Label release from TCO derivative 1.2 on trastuzumab, ^111In, PBS
[13] = Label release from TCO derivative 1.8 on trastuzumab, ^177Lu, PBS
[14] = ^111In-trastuzumab-1.8 followed by 2.10 1 h post-mAb, euthanized 24 h later, SD, n = 4
[15] = ^111In-trastuzumab-1.8 followed by 2.10 24 h post-mAb, euthanized 24 h later, SD, n = 4
[16] = TCO derivative conjugated to trastuzumab, ^111In, 50% mouse plasma in PBS
[17] = TCO derivative conjugated to trastuzumab, ^111In, PBS
[18] = Label release from TCO derivative 1.4 on trastuzumab, ^111In, 50% mouse plasma in PBS

O=C(CCCC(=O)Nc1cccnc1-c1nnc(-c2ncccc2NC(=O)CCCC(=O)NCCOCCOCCOCCOCCOCCOCCOCCOCCOCCO)nn1)NCCOCCOCCOCCOCCOCCOCCOCCOCCOCCO [Compound 2.8, N^1,N^1′-(2,2′-(1,2,4,5-Tetrazine-3,6-diyl)bis(pyridine-3,2-diyl))bis(N^5-(29-hydroxy-3,6,9,12,15,18,21,24,27-nonaoxanonacosyl)glutaramide)]
release (%) [1, 4]: 60.6% | release (%) [1, 5]: 79.9%

NCc1ccc(-c2nncnn2)cc1 [Compound 2.16, reference compound]
release (%) [1, 5]: 64.5%

Oc1cnccc1-c1nnc(-c2ccncc2O)nn1 [Compound 2.2, 4,4′-(1,2,4,5-Tetrazine-3,6-diyl)bis(pyridin-3-ol)]
release (%) [1, 6]: 60.3% | release (%) [1, 7]: 65.8% | release (%) [1, 8]: 87.2% | release (%) [1, 9]: 61.4% | release (%) [1, 10]: 69.5% | release (%) [1, 5]: 81.6%

O=C(CCCC(=O)Nc1cnccc1-c1nnc(-c2ccncc2NC(=O)CCCC(=O)NCCOCCOCCOCCOCCOCCOCCOCCOCCOCCO)nn1)NCCOCCOCCOCCOCCOCCOCCOCCOCCOCCO [Compound 2.10, N^1,N^1′-(4,4′-(1,2,4,5-Tetrazine-3,6-diyl)bis(pyridine-4,3-diyl))bis(N^5-(29-hydroxy-3,6,9,12,15,18,21,24,27-nonaoxanonacosyl)glutaramide)]
release (%) [1, 6]: 45.2% | release (%) [1, 7]: 50.0% | release (%) [1, 8]: 50.0% | release (%) [1, 11]: 52.2% | release (%) [1, 12]: 53.4% | release (%) [1, 10]: 57.9% | release (%) ([1]; Label release from TCO derivative 1.8 on CC49, ^111In, PBS): 79.9% | release (%) ([1]; Label release from TCO derivative 1.8 on cetuximab, ^111In, PBS): 84.9% | release (%) ([1]; Label release from TCO derivative 1.8 on girentuximab, ^111In, PBS): 83.6% | release (%) ([1]; Label release from TCO derivative 1.8 on rituximab, ^111In, PBS): 82.5% | release (%) [1, 4]: 82.4, 82.4^a % | release (%) [1, 5]: 82.4, 82.4^a % | release (%) [1, 13]: 81.2% | reduction in blood radioactivity with respect to control mice ([2]; ^111In-trastuzumab-1.8 (ca. 0.5 mg/kg) followed by 2.10 (ca. 33.5 μmol/kg) either 1 h or 24 h post-mAb, 24 h after Cleaving Agent): ca. 70% | ^111In biodistribution, Blood [2, 14]: 3.61 ± 0.44 % injected dose per gram | ^111In biodistribution, Bone [2, 14]: 0.44 ± 0.03 % injected dose per gram | ^111In biodistribution, Brain [2, 14]: 0.13 ± 0.08 % injected dose per gram | ^111In biodistribution, Heart [2, 14]: 0.87 ± 0.10 % injected dose per gram | ^111In biodistribution, Kidney L [2, 14]: 5.39 ± 0.84 % injected dose per gram | ^111In biodistribution, Lg. intestine [2, 14]: 0.34 ± 0.07 % injected dose per organ | ^111In biodistribution, Liver [2, 14]: 3.35 ± 0.10 % injected dose per gram | ^111In biodistribution, Lung [2, 14]: 1.94 ± 0.43 % injected dose per gram | ^111In biodistribution, Muscle [2, 14]: 0.27 ± 0.02 % injected dose per gram | ^111In biodistribution, Sm. Intestine [2, 14]: 0.61 ± 0.04 % injected dose per organ | ^111In biodistribution, Spleen [2, 14]: 1.19 ± 0.16 % injected dose per gram | ^111In biodistribution, Blood [2, 15]: 2.91 ± 0.53 % injected dose per gram | ^111In biodistribution, Bone [2, 15]: 0.65 ± 0.03 % injected dose per gram | ^111In biodistribution, Brain [2, 15]: 0.11 ± 0.02 % injected dose per gram | ^111In biodistribution, Heart [2, 15]: 0.93 ± 0.09 % injected dose per gram | ^111In biodistribution, Kidney L [2, 15]: 4.75 ± 0.45 % injected dose per gram | ^111In biodistribution, Lg. intestine [2, 15]: 0.56 ± 0.14 % injected dose per organ | ^111In biodistribution, Liver [2, 15]: 4.68 ± 1.11 % injected dose per gram | ^111In biodistribution, Muscle [2, 15]: 0.29 ± 0.05 % injected dose per gram | ^111In biodistribution, Sm. Intestine [2, 15]: 1.04 ± 0.21 % injected dose per organ | ^111In biodistribution, Spleen [2, 15]: 1.89 ± 0.17 % injected dose per gram | radioactivity uptake in tumors versus control mice ([3]; euthanized 24 h later): somewhat lower | radioactivity in blood ([3]; euthanized 24 h later (LS174T or BT-474)): 2-3 % ID/g

Cc1nnc(-c2nccc(CNC(=O)CCCC(=O)NC(CO)CO)n2)nn1 [Compound 2.20]
release (%) [1, 5]: 67.2%

CC(=O)N(O)CCCCCNC(=O)CCC(=O)N(O)CCCCCNC(=O)CCC(=O)N(O)CCCCCNC(=O)CN(C)C(=O)O[C@@H]1/C=C/CC[C@](C)(C(=O)ON2C(=O)CCC2=O)CC1 [Compound 1.15, NHS-TCO-Sar-DFO]
release (%) without Cleaving Agent ([1]; TCO derivative conjugated to CC49, ^89Zr, PBS): 7.3%

O=C(O)CCCC(=O)Nc1cnccc1-c1nnc(-c2ccncc2NC(=O)CCCC(=O)O)nn1 [Compound 2.9, 5,5′-((4,4′-(1,2,4,5-Tetrazine-3,6-diyl)bis(pyridine-4,3-diyl))bis(azanediyl))bis(5-oxopentanoic acid)]
release (%) [1, 4]: 67.0^a %

CC(=O)N[C@H]1C(OCCOCCOCCn2cc(COCCC(=O)NCCCCC(NC(=O)CCOCc3cn(CCOCCOCCOC4O[C@H](CO)[C@H](O)[C@H](O)[C@H]4NC(C)=O)nn3)C(=O)NCc3ccc(-c4nncnn4)cc3)nn2)O[C@H](CO)[C@H](O)[C@@H]1O (some centres unmarked) [Compound 2.11, Tetrazine-bis-GalNAc]
release (%) [1, 5]: 67.2%

Cc1nnc(-c2ncccn2)nn1 [Compound 2.19, reference compound]
release (%) [1, 5]: 69.1%

C[C@]1(C(=O)ON2C(=O)CCC2=O)CC/C=C/[C@@H](OC(=O)NCCNC(=O)CCC(C(=O)O)N2CCN(CC(=O)O)CCN(CC(=O)O)CCN(CC(=O)O)CC2)CC1 (some centres unmarked) [Compound 1.4, NHS-TCO-C2-DOTAGA]
release (%) without Cleaving Agent [1, 16]: 7.1% | release (%) without Cleaving Agent [1, 17]: 6.8%

CN(CC(=O)NCCOCCOCCOCCOCCNC(=O)CCC(C(=O)O)N1CCN(CC(=O)O)CCN(CC(=O)O)CCN(CC(=O)O)CC1)C(=O)O[C@@H]1/C=C/CC[C@](C)(C(=O)NCCOCCOCCOCCOCCOCCOCCOCCOCCOCCNC(=O)CCN2C(=O)C=CC2=O)CC1 (some centres unmarked) [Compound 1.8, Mal-PEG9-TCO-Sar-PEG4-DOTAGA]
release (%) without Cleaving Agent [1, 16]: 6.6% | release (%) without Cleaving Agent [1, 17]: 5.8%

CC(=O)Nc1cccnc1-c1nnc(-c2ncccc2NC(C)=O)nn1 [Compound 2.4, N,N′-(2,2′-(1,2,4,5-Tetrazine-3,6-diyl)bis(pyridine-3,2-diyl))diacetamide]
release (%) [1, 4]: 54.5^a %

c1ccc(-c2nnc(-c3ccccn3)nn2)nc1 [Compound 2.14, reference compound]
release (%) [1, 5]: 51.5%

Oc1cccnc1-c1nnc(-c2ncccc2O)nn1 [Compound 2.1, 2,2′-(1,2,4,5-Tetrazine-3,6-diyl)bis(pyridin-3-ol)]
release (%) [1, 6]: 53.0% | release (%) [1, 7]: 62.3% | release (%) ([1]; Label release from TCO derivative 1.17 on CC49, ^89Zr, 50% mouse plasma in PBS): 81.3% | release (%) [1, 8]: 88.0% | release (%) [1, 9]: 88.9% | release (%) ([1]; Label release from TCO derivative 1.2 on CC49, ^111In, PBS): 80.3% | release (%) ([1]; Label release from TCO derivative 1.2 on cetuximab, ^111In, PBS): 85.7% | release (%) ([1]; Label release from TCO derivative 1.2 on girentuximab, ^111In, PBS): 83.2% | release (%) ([1]; Label release from TCO derivative 1.2 on rituximab, ^111In, PBS): 77.9% | release (%) [1, 11]: 88.1% | release (%) [1, 12]: 78.2% | release (%) [1, 18]: 81.8^a % | release (%) ([1]; Label release from TCO derivative 1.6 on trastuzumab, ^111In, 50% mouse plasma in PBS): 68.9% | release (%) ([1]; Label release from TCO derivative 1.6 on trastuzumab, ^111In, PBS): 83.6% | release (%) ([1]; Label release from TCO derivative 1.7 on trastuzumab, ^111In, 50% mouse plasma in PBS): 63.4% | release (%) ([1]; Label release from TCO derivative 1.7 on trastuzumab, ^111In, PBS): 78.9% | release (%) [1, 4]: 77.0% | release (%) [1, 5]: 86.4%

Cc1nnc(C)nn1 [Compound 2.13, reference compound]
release (%) [1, 6]: 53.6% | release (%) [1, 7]: 66.3% | release (%) [1, 8]: 72.3% | release (%) [1, 9]: 84.4% | release (%) [1, 18]: 62.9^a % | release (%) ([1]; Label release from TCO derivative 1.4 on trastuzumab, ^177Lu, PBS): 69.5% | release (%) [1, 5]: 71.4% | release (%) [1, 13]: 88.9%
